Where two headings read alike, the source gives them in different places.
Biological target: Ba/F3 V617F cells (Homo sapiens, UniProt O60674, V617F, cells depend on it)
Assay: Proliferation assay (Cell Titer-Glo, 72 h) utilizing Ba/F3 V617F cells
Type: cell-based, mouse
Conditions: Ba/F3 V617F cells, proliferation
In short: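 Ba/F3 V617F cells in RPMI/10% FBS, 1×10^5 cells/mL, exposed in duplicate to 3-fold serial compound dilutions (top 5 mM DMSO stock, diluted 1:250, added as 2× solution in 5% FBS medium) for 72 h at 37 °C. Viability by Cell Titer-Glo luminescence; IC50 reported.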

[1] = level of activity given as class symbol, read-out: IC50 (the source's name)
[2] = level of activity to inhibit JAK2, read-out: IC50 (the source's name)

Sequence of Ba/F3 V617F cells (O60674 whole entry V617F): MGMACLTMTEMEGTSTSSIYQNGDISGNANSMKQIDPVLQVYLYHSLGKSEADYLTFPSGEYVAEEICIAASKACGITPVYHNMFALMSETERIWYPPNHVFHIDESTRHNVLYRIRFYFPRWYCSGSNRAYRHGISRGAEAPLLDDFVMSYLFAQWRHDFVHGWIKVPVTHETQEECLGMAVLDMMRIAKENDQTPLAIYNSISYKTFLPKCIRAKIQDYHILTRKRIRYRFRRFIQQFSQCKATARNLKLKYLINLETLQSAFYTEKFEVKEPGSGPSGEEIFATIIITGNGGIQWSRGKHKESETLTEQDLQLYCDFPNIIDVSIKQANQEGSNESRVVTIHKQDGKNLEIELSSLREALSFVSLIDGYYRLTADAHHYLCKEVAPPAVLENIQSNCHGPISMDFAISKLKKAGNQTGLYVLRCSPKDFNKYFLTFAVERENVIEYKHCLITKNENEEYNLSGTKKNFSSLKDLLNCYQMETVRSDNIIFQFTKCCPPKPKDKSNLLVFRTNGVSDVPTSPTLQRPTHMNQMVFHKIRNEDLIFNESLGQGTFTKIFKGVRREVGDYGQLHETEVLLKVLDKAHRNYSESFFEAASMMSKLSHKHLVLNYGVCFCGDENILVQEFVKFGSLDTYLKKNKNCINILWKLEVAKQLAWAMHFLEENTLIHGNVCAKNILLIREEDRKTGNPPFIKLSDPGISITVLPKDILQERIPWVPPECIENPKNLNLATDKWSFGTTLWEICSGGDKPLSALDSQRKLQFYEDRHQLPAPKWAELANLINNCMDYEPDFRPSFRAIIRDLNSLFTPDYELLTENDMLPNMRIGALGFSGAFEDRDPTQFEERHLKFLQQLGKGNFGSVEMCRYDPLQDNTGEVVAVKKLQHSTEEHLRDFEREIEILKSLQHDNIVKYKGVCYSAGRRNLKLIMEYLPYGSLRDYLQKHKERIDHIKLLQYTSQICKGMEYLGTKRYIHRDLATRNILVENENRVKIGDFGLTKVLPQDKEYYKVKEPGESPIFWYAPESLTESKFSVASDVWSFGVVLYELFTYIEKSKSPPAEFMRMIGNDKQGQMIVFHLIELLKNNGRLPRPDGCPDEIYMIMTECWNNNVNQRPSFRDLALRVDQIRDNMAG

SMILES | GI50 [1] | GI50 [2]
Cc1cc(Nc2nccc(-c3ccc4c(c3)SCC(=O)N4)n2)ccc1N1CCN2C(C1)[C@H]1CC[C@@H]2C1 (stereo partly drawn) [compound 279, 4-(3-oxo-3,4-dihydro-2H-benzo[b][1,4]thiazin-7-yl)-N-(3-methyl-4-((6R,9S)-6,9-methanooctahydro-1H-pyrido[1,2-a]pyrazin-2-yl)phenyl)pyrimidin-2-amine] | < 1 µM | –
Cc1cc(Nc2nccc(-c3ccc(NS(C)(=O)=O)nc3)n2)ccc1N1CC2CCC(C1)N2C [compound 167, 4-(6-(methylsulfonylamino)pyridin-3-yl)-N-(3-methyl-4-(8-methyl-3,8-diazabicyclo[3.2.1]octan-3-yl)phenyl)pyrimidin-2-amine] | – | < 1 µM
CN(C)c1ccc(-c2ccnc(Nc3ccc(N4C[C@@H]5C[C@H]4CN5C)c(F)c3)n2)cc1 [compound 15, 4-(4-(N,N-dimethylamino)phenyl)-N-(3-fluoro-4-((1S,4S)-5-methyl-2,5-diazabicyclo[2.2.1]heptan-2-yl)phenyl)pyrimidin-2-amine] | – | 1 to 10 µM
Cc1cc(Nc2nccc(-c3ccc4c(ccn4-c4ccncc4)c3)n2)ccc1N1C[C@@H]2C[C@H]1CN2C [compound 232, 4-(1-(pyridin-4-yl)-1H-indol-5-yl)-N-(3-methyl-4-((1S,4S)-5-methyl-2,5-diazabicyclo[2.2.1]heptan-2-yl)phenyl)pyrimidin-2-amine] | < 1 µM | –
CN1C2CCC1CN(c1ccc(Nc3nccc(-c4ccc(N5CCOCC5)nc4)n3)cc1)C2 [compound 155, 4-(6-(morpholin-4-yl)pyridin-3-yl)-N-(4-(8-methyl-3,8-diazabicyclo[3.2.1]octan-3-yl)phenyl)pyrimidin-2-amine] | – | < 1 µM
CN1C[C@@H]2C[C@H]1CN2c1ccc(Nc2nccc(-c3ccc(NCc4ccccc4)nc3)n2)cc1F [compound 81, 4-(6-(benzylamino)pyridin-3-yl)-N-(3-fluoro-4-((1S,4S)-5-methyl-2,5-diazabicyclo[2.2.1]heptan-2-yl)phenyl)pyrimidin-2-amine] | – | < 1 µM
Cc1cc(Nc2nccc(-c3ccc(OC4CCOCC4)nc3)n2)ccc1N1C2CCC1CC(N1CCOCC1)C2 (centres unmarked) [compound 285, 4-(6-(tetrahydropyran-4-yloxy)pyridin-3-yl)-N-(3-methyl-4-(3-(morpholin-4-yl)-8-azabicyclo[3.2.1]octan-8-yl)phenyl)pyrimidin-2-amine] | < 1 µM | –
CN1CC2(C)CN(c3ccc(Nc4nccc(-c5cnc6c(c5)OC(C)(C)C(=O)N6)n4)cc3F)CC(C)(C1)C2 [compound 208, 4-(2,2-dimethyl-3-oxo-3,4-dihydro-2H-pyrido[3,2-b][1,4]oxazin-7-yl)-N-(3-fluoro-4-(1,5,7-trimethyl-3,7-diazabicyclo[3.3.1]nonan-3-yl)phenyl)pyrimidin-2-amine] | 1 to 10 µM | –
CN1CC2(C)CN(c3ccc(Nc4nccc(-c5ccc(N(C)C)cc5)n4)cc3F)CC(C)(C1)C2 [compound 84, 4-(4-(dimethylamino)phenyl)-N-(3-fluoro-4-(1,5,7-trimethyl-3,7-diazabicyclo[3.3.1]nonan-3-yl)phenyl)pyrimidin-2-amine] | – | < 1 µM
Cc1cc(Nc2nccc(-c3ccc4c(c3)CCCC(=O)N4)n2)ccc1N1CCN2C(C1)[C@H]1CC[C@@H]2C1 (stereo partly drawn) [compound 278, 4-(2-oxo-2,3,4,5-tetrahydro-1H-benzo[b]azepin-7-yl)-N-(3-methyl-4-((6R,9S)-6,9-methanooctahydro-1H-pyrido[1,2-a]pyrazin-2-yl)phenyl)pyrimidin-2-amine] | < 1 µM | –
Cc1cc(Nc2nccc(-c3ccc(C#N)nc3)n2)ccc1N1C2CCC1CC2 [compound 112, 4-(6-cyanopyridin-3-yl)-N-(3-methyl-4-(7-azabicyclo[2.2.1]heptan-7-yl)phenyl)pyrimidin-2-amine] | – | 1 to 10 µM
Cc1cc(Nc2nccc(-c3cnc4c(c3)OCCN4)n2)ccc1N1CC2(C)CN(C)CC(C)(C1)C2 [compound 88, 4-(3,4-dihydro-2H-pyrido[3,2-b][1,4]oxazin-7-yl)-N-(3-methyl-4-(1,5,7-trimethyl-3,7-diazabicyclo[3.3.1]nonan-3-yl)phenyl)pyrimidin-2-amine] | – | < 1 µM
CN1C[C@@H]2C[C@H]1CN2c1ccc(Nc2nccc(-c3ccc4c(c3)NC(=O)CO4)n2)cc1F [compound 124, 4-(2H-benzo[b][1,4]oxazin-3(4H)-on-6-yl)-N-(3-fluoro-4-((1S,4S)-5-methyl-2,5-diazabicyclo[2.2.1]heptan-2-yl)phenyl)pyrimidin-2-amine] | – | < 1 µM
CN1C[C@@H]2C[C@H]1CN2c1ccc(Nc2nccc(-c3cnc4c(c3)OC(C)(C)C(=O)N4)n2)cc1 [compound 137, 4-(2,2-dimethyl-3-oxo-3,4-dihydro-2H-pyrido[3,2-b][1,4]oxazin-7-yl)-N-(4-((1S,4S)-5-methyl-2,5-diazabicyclo[2.2.1]heptan-2-yl)phenyl)pyrimidin-2-amine] | – | < 1 µM
CN1C[C@@H]2C[C@H]1CN2c1ccc(Nc2nccc(-c3ccc(NS(C)(=O)=O)cc3)n2)cc1F [compound 135, 4-(4-(methylsulfonylamino)phenyl)-N-(3-fluoro-4-((1S,4S)-5-methyl-2,5-diazabicyclo[2.2.1]heptan-2-yl)phenyl)pyrimidin-2-amine] | – | < 1 µM
CC1(C)Oc2cc(-c3ccnc(Nc4ccc(N5C[C@@H]6C[C@H]5CN6S(C)(=O)=O)c(Cl)c4)n3)cnc2NC1=O [compound 249, 4-(2,2-dimethyl-3-oxo-3,4-dihydro-2H-pyrido[3,2-b][1,4]oxazin-7-yl)-N-(3-chloro-4-((1S,4S)-5-(methylsulfonyl)-2,5-diazabicyclo[2.2.1]heptan-2-yl)phenyl)pyrimidin-2-amine] | < 1 µM | –
Cc1cc(Nc2nccc(-c3ccc(N4C[C@@H](C)O[C@@H](C)C4)nc3)n2)ccc1N1C[C@@H]2C[C@H]1CO2 (relative stereo) [compound 201] | < 1 µM | –

The remaining lines, values ahead:

GI50 [1] | GI50 [2] | SMILES
– | 1 to 10 µM | Cc1cc(Nc2nccc(-c3ccc(CC(=O)NC4CC4)cc3)n2)ccc1N1C[C@@H]2C[C@H]1CN2C [compound 49, 4-(4-((cyclopropyl)aminocarbonyl-methyl)phenyl)-N-(3-methyl-4-((1S,4S)-5-methyl-2,5-diazabicyclo[2.2.1]heptan-2-yl)phenyl)pyrimidin-2-amine]
– | < 1 µM | CCCNc1ncc(-c2ccnc(Nc3ccc(N4C[C@@H]5C[C@H]4CN5C)c(F)c3)n2)cn1 [compound 93, 4-(2-(propyl)aminopyrimidin-5-yl)-N-(3-fluoro-4-((1S,4S)-5-methyl-2,5-diazabicyclo[2.2.1]heptan-2-yl)phenyl)pyrimidin-2-amine]
< 1 µM | – | Cc1cc(Nc2nccc(-c3ccc(N4CCOCC4)nc3)n2)ccc1N1C[C@@H]2C[C@H]1CN2C1CC1 [compound 254, 4-(6-(morpholin-4-yl)pyridin-3-yl)-N-(3-methyl-4-((1S,4S)-5-cyclopropyl-2,5-diazabicyclo[2.2.1]heptan-2-yl)phenyl)pyrimidin-2-amine]
< 1 µM | – | Cc1cc(Nc2nccc(-c3ccc(N4CCCOCC4)nc3)n2)ccc1N1C[C@@H]2C[C@H]1CO2 [compound 204, 4-(6-(1,4-oxazepan-4-yl)pyridin-3-yl)-N-(3-methyl-4-((1S,4S)-5-oxa-2-azabicyclo[2.2.1]heptan-2-yl)phenyl)pyrimidin-2-amine]
< 1 µM | – | Cc1cc(Nc2nccc(-c3ccc(N4CCOCC4)nc3)n2)ccc1N1C[C@@H]2CC[C@H]1C2 [compound 222, 4-(6-(morpholin-4-yl)pyridin-3-yl)-N-(3-methyl-4-((1S,4R)-2-azabicyclo[2.2.1]heptan-2-yl)phenyl)pyrimidin-2-amine]
– | < 1 µM | Cc1cc(Nc2nccc(-c3ccc(N4CCOCC4)nc3)n2)ccc1N1C[C@@H]2C[C@H]1CN2C [compound 10, 4-(6-(morpholin-4-yl)pyridin-3-yl)-N-(3-methyl-4-((1S,4S)-5-methyl-2,5-diazabicyclo[2.2.1]heptan-2-yl)phenyl)pyrimidin-2-amine]
– | < 1 µM | CCN1C[C@@H]2C[C@H]1CN2c1ccc(Nc2nccc(-c3cnc4c(c3)OC3(CCC3)C(=O)N4)n2)cc1C [compound 32, 4-(3′-oxo-3′,4′-dihydrospiro[cyclobutane-1,2′-pyrido[3,2-b][1,4]oxazine]-7′-yl)-N-(3-methyl-4-((1S,4S)-5-ethyl-2,5-diazabicyclo[2.2.1]heptan-2-yl)phenyl)pyrimidin-2-amine]
< 1 µM | – | CC(=O)N1C[C@@H]2C[C@H]1CN2c1ccc(Nc2nccc(-c3cnc4c(c3)OC(C)(C)C(=O)N4)n2)cc1C [compound 251, 4-(2,2-dimethyl-3-oxo-3,4-dihydro-2H-pyrido[3,2-b][1,4]oxazin-7-yl)-N-(3-methyl-4-((1S,4S)-5-acetyl-2,5-diazabicyclo[2.2.1]heptan-2-yl)phenyl)pyrimidin-2-amine]
< 1 µM | – | Cc1cc(Nc2nccc(-c3ccnc(C(F)(F)F)c3)n2)ccc1N1C[C@@H]2C[C@H]1CN2C [compound 256, 4-(2-(trifluoromethyl)pyridin-4-yl)-N-(3-methyl-4-((1S,4S)-5-methyl-2,5-diazabicyclo[2.2.1]heptan-2-yl)phenyl)pyrimidin-2-amine]
– | < 1 µM | Cc1cc(Nc2nccc(-c3ccc(N4CCOCC4)nc3)n2)ccc1N1CCN2CCC1CC2 [compound 159, 4-(6-(morpholin-4-yl)pyridin-3-yl)-N-(3-methyl-4-(1,4-diazabicyclo[3.2.2]nonan-4-yl)phenyl)pyrimidin-2-amine]
– | < 1 µM | CN1CCOc2cc(-c3ccnc(Nc4ccc(N5C[C@@H]6C[C@H]5CN6C)c(F)c4)n3)cnc21 [compound 9, 4-(4-methyl-3,4-dihydro-2H-pyrido[3,2-b][1,4]oxazin-7-yl)-N-(3-fluoro-4-((1S,4S)-5-methyl-2,5-diazabicyclo[2.2.1]heptan-2-yl)phenyl)pyrimidin-2-amine]
– | < 1 µM | Cc1cc(Nc2nccc(-c3cnc(N4CCOCC4)c(C)c3)n2)ccc1N1C[C@@H]2C[C@H]1CN2C [compound 60, 4-(5-methyl-6-(morpholin-4-yl)pyridin-3-yl)-N-(3-methyl-4-((1S,4S)-5-methyl-2,5-diazabicyclo[2.2.1]heptan-2-yl)phenyl)pyrimidin-2-amine]
